# In US20230149407A1, “Methods of Treating Coronavirus Disease 2019” (priority 2020, published 2023):
# Entries after “also recorded” stand apart in the source; their conditions may differ.
# Legend:
# [1] = tested on: IL-6/STAT3 signaling; assay: in-vitro IL-6/STAT3 signaling; assay type: cell-based; settings: both at 5 and 10 mg
# [2] = tested on: IL-6; assay: expected suppression of IL-6 at clinical tofacitinib doses; assay type: in vivo, human
# [3] = tested on: IFNα, IFNβ, IFNγ, TNFα, IL-1, IL-2, IL4, IL-6, IL-7, IL-9, IL-10, IL-12, IL13, IL-15, IL-21, IL-23, and IL-27; settings: cited from earlier work
# [4] = tested on: collagen-induced arthritis; assay: rat collagen-induced arthritis model; assay type: in vivo
# [5] = tested on: imiquimod (a TLR7 agonist)-induced skin inflammation; assay: 5-day murine model of imiquimod-induced skin inflammation; assay type: in vivo; settings: 5-day murine imiquimod model
# [6] = tested on: hsCRP; assay: hsCRP in healthy adults; assay type: in vivo, human
# [7] = tested on: C-reactive protein (CRP); assay: expected reduction in CRP (exposure response model); assay type: in vivo, human
# [8] = tested on: blood transcriptional programs for type I interferons and IL-6; assay: blood transcriptional programs in healthy volunteers and RA patients; assay type: in vivo, human
# [9] = tested on: human bronchial epithelial cells; assay: chemokine production from human bronchial epithelial cells; assay type: cell-based
# [10] = tested on: moderately to severely active RA; assay: 12-week study in patients with moderately to severely active RA; assay type: in vivo, human; settings: doses of 200 and 400 mg as modified release (MR) tablets
# [11] = renal excretion of PF-06650833; settings: in vivo
# [12] = tested on: LPS-induced TNFα; assay: acute model of endotoxin-induced inflammation in rats; assay type: in vivo, rat; settings: administered orally
# [13] = tested on: inflammatory monocytes; assay: levels of inflammatory monocytes; set-up: species or system human; settings: in vivo
smiles,measurement,setting,value
"C[C@@H]1CCN(C(=O)CC#N)C[C@@H]1N(C)c1ncnc2[nH]ccc12 [tofacitinib, 3-((3R,4R)-4-Methyl-3-(methyl(7H-pyrrolo[2,3-d]pyrimidin-4-yl)amino)piperidin-1-yl)-3-oxopropanenitrile]",IL-6/STAT3 signaling,[1],inhibits
same,predicted suppression of IL-6,[2]; 5 mg BID dose,approximately 60%
same,suppression of IL-6,"[2]; 10 mg BID dose, may be expected",approximately 80%
same,"levels of IFNα, IFNβ, IFNγ, TNFα, IL-1, IL-2, IL4, IL-6, IL-7, IL-9, IL-10, IL-12, IL13, IL-15, IL-21, IL-23, and IL-27",[3],reduces levels
"CC[C@@H]1[C@H](F)C(=O)N[C@@H]1COc1nccc2cc(C(N)=O)c(OC)cc12 [PF-06650833, 1-(((2S,3S,4S)-3-Ethyl-4-fluoro-5-oxopyrrolidin-2-yl)methoxy)-7-methoxyisoquinoline-6-carboxamide]",hind paw swelling,[4],significantly reduced
same,ear swelling,[5],inhibit ear swelling in a dose-dependent manner
same,levels of hsCRP,[6],suppression of CRP; also recorded: dose-dependently reduced
same,reduction in CRP,[7]; 200 mg IR suspension Q6H,50-60%
same,reduction in CRP,[7]; 400 mg MR tablets QD (or 200 mg IR suspension Q6H),50-60%
same,blood transcriptional programs for type I interferons and IL-6,[8],dose-dependently inhibits
same,"chemokine production, IL-1β-stimulated release of CXCL8 and IL-6",[9],reduces
same,efficacy in 12-week study in RA patients,[10],demonstrated efficacy
same,renal excretion,[11],low
same,LPS-induced TNFα,[12],inhibit LPS-induced TNFα in a dose-dependent manner
same,levels of inflammatory monocytes,[13],reduces levels
